{"source": "patent US12295997B2", "about": "“Prostate neoantigens and their uses” (Janssen Biotech, Inc., priority 2020, dated 2025)", "test_system": "CD8+ and CD4+ T cells (autologous CD3+ Pan-T cells isolated from human normal PBMCs)", "assay": "Endogenous autologous normal donor restimulation assay (Ad5-transduced CD1c+ dendritic cells, TNFα/IFNγ flow cytometry)", "type": "cell-based", "conditions": "Table 27, endogenous expression, peptide pool restimulation, highest across sixteen normal donors", "experimental": "CD1c+ Dendritic Cells (DC) isolated from human normal PBMCs were thawed using media (IMDM (Gibco) supplemented with glutamine, HEPES, 5% human serum (Sigma), and 1×Pen-Strep). DC cells were resuspended in media supplemented with IL-4 (Peprotech, 80 ng/mL) and GM-CSF (Gibco, 80 ng/mL), plated in 6 well microplates, and rested overnight at 37° C. (5% CO2). The following day, DC cells were counted and plated in a 96 well round bottom microplate at a concentration of 30,000 viable cells per well. Ad5 vectors (Vector Biolabs) were dilute in media to an MOI (Multiplicity Of Infection) of 5000 based on Plaque Forming Units. Ad5 vectors for the CEF pool and a “null” were used as controls. DCs were transduced with Ad5 vectors overnight at 37° C. (5% CO2). The following day, the Ad5 vectors were washed off the plate by three sequential centrifugation/aspiration steps using sterile Phosphate Buffered Saline. After the final wash, transduced DCs were resuspended in 100 μL media. Autologous CD3+ Pan-T cells isolated from human normal PBMCs were thawed using media. Pan-T cells were added to the irradiated DCs at 300,000 viable cells per well (100 μL/well). Human IL-15 (Peprotech) was added to all wells at final concentration of 10 ng/mL.\nPlates were incubated at 37° C. (5% CO2) for a total of 12 days. Media was refreshed every 2-3 days with IL-15 (10 ng/mL final concentration) and IL-2 (R&D systems, 10 IU/mL final concentration). On day 11 lyophilized peptides (15-mer overlapping peptides) were solubilized in 100% DMSO and pooled by neoantigen to between 5 mg/mL and 20 mg/mL. Neoantigen peptides pools were added to cells for a final concentration of 2.5 μg/mL to 10 μg/mL. CEF Peptide Pool “Plus” (Cellular Technologies, Ltd.) was utilized as a positive control and DMSO at the same final concentration as the experimental peptides was utilized as a negative control. Protein Inhibitor Cocktail (eBioscience) was added to every well and plate was incubated overnight at 37° C. (5% CO2).\nOn day 12, cells were stained for intracellular flow cytometry analysis. The cells were washed with PBS and stained with Live/Dead Fixable Aqua Dead Cell stain (Thermo-Fisher). Following the live/dead stain, cells were blocked using Biotin-Free Fc Receptor Blocker (Accurate Chemical & Scientific Corp). Extracellular cellular flow panel ([…] per well in 50 μL) consisted of CD3 PerCP-Cy5.5 (Biolegend), CD4 BV421 (Biolegend), and CD8 APC-Cy7 (Biolegend). After extracellular staining, cells were fixed using Foxp3/fTranscription Factor Staining Buffer Set (eBioscience) and stained for intracellular proteins (1:50 dilution) using TNFα FITC (R&D Systems) and IFNγ BV785 (Biolegend). Cells were washed and resuspended in stain buffer and analyzed using a BD Celesta flow cytometer.\nFlow cytometry cell staining analysis was completed using FlowJo v10. Cells were gated on live, singlet, CD3+ cells. The CD8+ and CD4+ T cells were analyzed for TNFα/IFNγ expression and the frequency of double positive TNFα/IFNγ CD8+ and the frequency of double positive TNFα/IFNγ CD4+ T cells were recorded. Responses were assessed to be positive when the frequency of double positive TNFα/IFNγ CD8+ or TNFα/IFNγ CD4+ T cells due to stimulation with an experimental peptide pool was increased greater than or equal to 3-fold over the DMSO only negative control for that donor and at least 0.01%.\nFor three of the neoantigens, an Ad5 vector was designed to transduce normal Dendritic cells with the neoantigens. This assay assessed the ability of the endogenously expressed and presented neoantigens to activate autologous T cells following overlapping 15-mer peptide pools restimulation using the endogenous autologous normal donor restimulation assay described in Example 1 utilizing TNFα and IFNγ production by CD8^+ and CD4^+ T cells as a readout. […] Sixteen donors were used to assess endogenous immunogenicity."}
{"sequence": "YEAGMTLGGKILFFLFLLLPLSPFSLIF (listed as Homo sapiens) [Neoantigen P87]", "values": [{"measurement": "Maximum Fold Change Over Background CD4+ cells", "result": 2.41}, {"measurement": "Maximum Fold Change Over Background CD8+ cells", "result": 2.47}, {"measurement": "Maximum Frequency of TNFα/IFNγ Double Positive CD4+ T cells", "result": 0.079}, {"measurement": "Maximum Frequency of TNFα/IFNγ Double Positive CD8+ T cells", "result": 0.39}]}
